From patent publication US10087181B2, “Compound as WNT signaling inhibitor, composition, and use thereof” (CUREGENIX, INC., priority 2012, dated 2018)

Tested on: WNT pathway
Test: WNT pathway reporter gene assay (NIH3T3 TCF-Luc cells co-cultured with 293 WNT3a cells)
Type: cell-based
Settings: Mus musculus, concentration reducing luminescence intensity by 50%, TCF luciferase, 16 hours co-culture
Experimental: NIH3T3 mouse fibroblast cells (American Type Culture Collection, Manassas, Va.) were transfected with a plasmid containing a luciferase gene driven by 5 copies of TCF elements. Stale cells selected with 1 μg/mL of Zeocin (Gibco/Invitrogen, Carlsbad, Calif.) are cultured in Dulbecco's modified Eagle's medium (Invitrogen, Carlsbad, Calif.) supplemented with 10% FBS (Invitrogen), 50 unit/mL penicillin and 50 μg/mL of streptomycin (Invitrogen) at 37° C. with 5% CO2 in air atmosphere.
After 16 hours, the firefly luciferase activities are measured with the Steady-Glo™ Luciferase Assay System (Promega). The cells were treated with different concentrations of compounds of this invention during the co-culture. […] To normalize for cell quantity and viability, CellTiter Glo assay is next performed in a duplicate plate.

| Compound | IC50 [nM] |
| --- | --- |
| Cc1cc(-c2ccc(CNc3nccc4cc(-c5ccnc(C)c5)ncc34)cc2)ccn1 [Compound 1, N-(4-(2-methylpyridin-4-yl)benzyl)-6-(2-methylpyridin-4-yl)-2,7-naphthyridin-1-amine] | < 3 |
| Cc1cc(-c2cc3ccnc(NCc4ccc(-c5ccnc(C)c5)c(C)c4)c3cn2)ccn1 [Compound 2, N-(3-methyl-4-(2-methylpyridin-4-yl)benzyl)-6-(2-methylpyridin-4-yl)-2,7-naphthyridin-1-amine] | < 3 |
| Cc1cc(-c2cc3ccnc(NCc4ccc(-c5ccnc(F)c5)c(F)c4)c3cn2)ccn1 [Compound 28] | < 3 |
| Cc1cc(-c2ccc(CNc3nccc4cc(-c5cnccn5)ncc34)cc2)ccn1 [Compound 35] | < 3 |
| Cc1cc(-c2ncc(CNc3nccc4cc(-c5cnccn5)ccc34)cc2C)ccn1 [Compound 70] | < 3 |
